Results on eight compounds are retold here after patent US20100130500A1, “METHODS AND COMPOSITIONS FOR THE TREATMENT OF PULMONARY HYPERTENSION OF THE NEWBORN” (BIOMARIN PHARMACEUTICAL INC., priority 2004, published 2010).

The nature of data set [1]: Hygroscopicity / water adsorption of crystal forms. Type of data set: physicochemical. Conditions: dihydrochloride.
A short description of data set [2]: Physical stability of crystal forms (temperature, humidity, phase equilibration). Type of data set: physicochemical.
A further data set deals with infants with PPHN. Conditions: cited from earlier work.

For the compound `C[C@H](O)[C@H](O)[C@H]1CNc2nc(N)[nH]c(=O)c2N1.Cl.Cl` [Polymorph A, (6R)-L-erythro-tetrahydrobiopterin dihydrochloride], the “adsorbs water to a content of” value in data set [1] is “about 3 percent by weight”. Further, the “phase equilibration tests of suspensions” value in data set [2] (tetrahydrofuran or tertiary-butyl methyl ether, stirred five days and 18 hours respectively, nitrogen, room temperature, filtration and air-drying) is “unchanged polymorph form A”.
Take `C[C@H](O)[C@H](O)[C@H]1CNc2nc(N)[nH]c(=O)c2N1.Cl.Cl` [Polymorph B, (6R)-L-erythro-tetrahydrobiopterin dihydrochloride]: in data set [2] (dihydrochloride), the “stability of the crystal form” value is “highest thermodynamic stability above about 20 °C”.
Turning to `C[C@H](O)[C@H](O)[C@H]1CNc2nc(N)[nH]c(=O)c2N1.Cl.Cl` [Polymorph F, (6R)-L-erythro-tetrahydrobiopterin dihydrochloride], in data set [1], the “adsorbs water to a content of” value is on record as “about 3 percent by weight”.
Same read-out and setting: the result for `C[C@H](O)[C@H](O)[C@H]1CNc2nc(N)[nH]c(=O)c2N1.Cl.Cl` [Polymorph K, (6R)-L-erythro-tetrahydrobiopterin dihydrochloride] reads “about 2.0 percent by weight”.
Regarding `Nc1ncnc2c1ncn2[C@@H]1O[C@H](COP(=O)(O)OP(=O)(O)OP(=O)(O)O)[C@@H](O)[C@H]1O` [adenosine triphosphate], the “infants with a response” value with infants with PPHN was 5 out of 6.
`C[C@H](O)[C@H](O)[C@H]1CNc2nc(N)[nH]c(=O)c2N1.Cl.Cl` [hydrate form D, (6R)-L-erythro-tetrahydrobiopterin dihydrochloride]: in data set [2] (ambient temperatures, dihydrochloride), the “relative humidity at which the form is stable” value is “less than 70%”.
For `C[C@H](O)[C@H](O)[C@H]1CNc2nc(N)[nH]c(=O)c2N1.Cl.Cl` [polymorph J, (6R)-L-erythro-tetrahydrobiopterin dihydrochloride], the “relative humidity at which it is transformed back into form E” value in data set [2] is “above 75%”.
On to `c1ccc(CC2=NCCN2)cc1` [tolazoline], for which the response rate with infants with PPHN is 60%.
